Peptide text beside a SMILES is read from it. * marks the point of attachment. Palmitoyl = CCCCCCCCCCCCCCCC(=O)*

This series can be described thus: Solubility in the cell culture conditions (medium without foetal calf serum and few solvent). The following applies: cell culture medium without foetal calf serum and few solvent (DMSO 0.08%). It counts as physicochemical. The protocol:
After 3 days of incubation, supernatants were collected and frozen. Survival was estimated on cell layer using a fluorescent probe. Collagen I was estimated using an original direct ELISA method. Results: TGF-b1 should be promoter of Collagen I synthesis. Statistical analysis were performed on Collagen I data (n=3 to n=5 / assay). Results obtained with molecules were compared to negative control. A Student t test for non paired values was used; significativity was obtained if p < 0.05 or p < 0.01. In our cell culture conditions (medium without foetal calf serum and few solvent), Pal-Gly-Lys-Thr-Thr-Lys-Ser was insoluble for concentrations > 5.4 ppm. Table 1: Effect of Pal-Gly-Lys-Thr-Thr-Lys-Ser (SEQ ID NO: 14) on NHDF's Collagen I. Results (from 4 independent experimentations) are in percent compared to the negative control.

Regarding `CCCCCCCCCCCCCCCC(=O)NCC(=O)N[C@@H](CCCCN)C(=O)N[C@H](C(=O)N[C@H](C(=O)N[C@@H](CCCCN)C(=O)N[C@@H](CO)C(=O)O)[C@@H](C)O)[C@@H](C)O` [N-Palmitoyl-Gly-Lys-Thr-Thr-Lys-Ser] (Palmitoyl-GKTTKS-OH), the insoluble for concentrations is listed as > 5.4 ppm.

The values above are taken from patent EP1960421B1, “NEW POLYPEPTIDES AND THEIR USE” (SEDERMA, priority 2005, dated 2007).
